# According to ChEMBL document CHEMBL2095176, “GSK Tuberculosis Screening Data”:
# Tested on: Mycobacterium tuberculosis variant bovis BCG
# Experiment: microbe, parasite or virus in culture
# Assay type: functional
row,Structure (SMILES),MIC90 [µM]
1,O=C(Nc1nc(-c2ccccn2)cc2ccccc12)c1cccc(Cl)c1,3
2,N#Cc1nc(-c2ccccc2F)oc1NCCc1ccccc1,7.9
3,COc1ccc(CCNC(=O)c2c(C)nc3ccccn23)cc1,6.9
4,c1csc(Cc2nn3c(-c4n[nH]c5c4CCC5)nnc3s2)c1,3.2
5,Cc1nc2ccccn2c1C(=O)NCc1ccc2c(c1)OCO2,3
6,Cc1cc(C)c2cc(CN(Cc3cccnc3)C(=O)c3ccc(F)cc3)c(Cl)nc2c1,2.9
7,O=C(c1cc2ccccc2o1)N1CCN(Cc2ccc3c(c2)OCO3)CC1,2.7
8,COc1ccc(-c2cc(=O)c3cc(OCC(=O)OC(C)C)ccc3o2)cc1,6.2
9,O=C(Nc1nnc(-c2ccc(Br)cc2)o1)c1cccc(F)c1,2.2
10,O=C(c1cnn(C(=O)c2ccco2)c1)c1ccccc1O,2.5
11,Cc1cc(C)n(-c2nc3ccccc3c(=O)[nH]2)n1,3.3
12,CC(C)CCN(c1ccc(C#N)c(Cl)c1)[C@H]1CCNC1,2
13,O=C(Nc1nc(-c2ccccn2)cs1)c1cccc(F)c1,2
14,CC1=C(C(=O)Nc2ccc3[nH]ncc3c2)C(c2cc(C#Cc3ccccc3)cs2)NC(=O)N1 (centres undefined),2
15,Cc1cc(C)n(-c2nc(O)cc(-c3ccccc3)n2)n1,2
16,Cc1nc2ccccn2c1C(=O)NCc1ccccc1,3.4
17,COc1ccc(N(C(=O)CNc2ccccc2Nc2ccccc2)C2CCCC2)cc1,2.1
18,O=C(Nc1nc(-c2ccccn2)cs1)c1cc2c(F)cccc2s1,2.1
19,COc1ccccc1-c1cc(O)c2c(C)nn(-c3ccccc3)c2n1,2.1
20,O=c1c2sc(-c3ccc(Cl)cc3)cc2ncn1-c1ccc(OCCN2CCCC2)c(Cl)c1,2.1
21,CC(=O)N1CCc2ccc(/C=C/C(=O)O)cc21,2.1
22,Cc1ccc2nc(C(F)(F)F)c(C(=O)NCc3cccc(OC(C)C)c3)n2c1,1.9
23,Clc1cc(N2CCNCC2)cc(Cl)c1OCc1ccccc1,2.2

row,Structure (SMILES),MIC90 [µM]
1,c1ccc2c(Cc3nnc(Sc4ccnc(N5CCN(c6ccncc6)CC5)n4)n3CCCN3CCOCC3)c[nH]c2c1,2.2
2,COc1cc2ccccc2cc1C(=O)NCc1cccc(-c2ccccc2OC)c1,3.6
3,Nc1cccnc1Nc1ccc(C(F)(F)F)cc1,3.7
4,O=C(O)COCC(=O)NNC(=O)c1ccncc1,2.3
5,NC(=O)C(N)Cc1c[nH]c2ccc(F)cc12 (centres undefined),2.3
6,CCSc1ccc(C(=O)Nc2nc(-c3ccccn3)cs2)cc1,2.3
7,Cc1ccc(-c2nnc(NC(=O)c3ccc(F)cc3)o2)cc1C,2.3
8,c1cc(CN2CCC3(CC2)OCCc2sccc23)nc(-c2ccc3c(c2)OCO3)c1,2.3
9,Cc1csc2nc(Cc3ccc(C(=O)c4ccc(C(=O)OCc5ccccc5)cc4)cc3)oc(=O)c12,2.3
10,COc1ccc(Nc2ccccc2N)cc1Cl,2.3
11,Cc1cc(OCC(=O)NCc2ccccc2)c2cc(Br)ccc2n1,4.6
12,Cc1ccc(N2CCN(CCOc3cccc(-c4ccc(C(=O)N5CCCC5)cc4)c3)CC2)cc1C,2.4
13,O=C(COc1ccc(Br)cc1)NNC(=O)c1cccs1,2.4
14,CCN(CC)CCCn1c(Sc2ccnc(N3CCN(c4ccncc4)CC3)n2)nnc1-c1ccccc1,2.4
15,CCN(CC)CCCn1c(Sc2ccnc(N3CCN(c4ccncc4)CC3)n2)nnc1-c1ccccn1,2.4
16,COc1ccc(CN2CCC3(CCc4ccccc43)CC2)cc1OCc1ccccc1,2.4
17,Cn1c(SCC(=O)Nc2sccc2C#N)nnc1-c1ccc(Cl)cc1,2.4
18,N#Cc1ccc2c(c1)CCN(CCCSc1ccnc3cc(C(F)(F)F)ccc13)CC2,3.2
19,Cc1cc(C(=O)Nc2nc3c(C)cccc3s2)c2c(C)nn(C(C)C)c2n1,2.5
20,O=C(COc1ccc(-c2ccccc2)cc1)NNC(=O)c1ccco1,2.5
21,O=c1c2sc(-c3ccc(Cl)cc3)cc2ncn1-c1ccc2c(c1)OC[C@H](CN1CCCC1)O2,2.5
22,O=C(NC12CC3CC(CC(C3)C1)C2)c1cc2ccccc2[nH]1,2.5
23,CCOc1ccc(OCc2ccc(C(=O)NNC(=O)c3ccc([N+](=O)[O-])o3)cc2)cc1,1.6

row,Structure (SMILES),MIC90 [µM]
1,COc1ccc(N(C(=O)CNc2ccccc2Nc2ccc(Cl)cc2)C(C)C)cc1,2.6
2,CC1CCN(Cc2c(O)ccc3oc(-c4ccco4)cc(=O)c23)CC1,2.6
3,CC1=NN(C(=O)c2ccncc2)C(O)(c2ccncc2)C1 (centres undefined),2.6
4,CC(=O)NCCn1c(Sc2ccnc(N3CCN(c4ccncc4)CC3)n2)nnc1-c1ccco1,2.6
5,CC(=O)c1cccc(NC(=O)N(CCc2cccnc2)Cc2csc(-c3ccc(CNCc4ccccc4)cc3)n2)c1,2.6
6,c1ccc(SCc2nn3c(-c4ccccc4)nnc3s2)cc1,7.5
7,c1ccc(-c2nc(N3CCCNCC3)c3ccccc3n2)cc1,2.7
8,COc1ccc(-c2nnc3sc(Cc4ccccc4)nn23)cc1,2.7
9,CN(C)CCNCc1ccc(-c2cc(Cl)cc(Cl)c2)o1,2.7
10,c1ccc(-c2csc(CN3CCC4(CC3)OCCc3sccc34)c2)cc1,2.7
11,c1ccc(Cc2nnc(Sc3ccnc(N4CCN(c5ccncc5)CC4)n3)n2CCCN2CCOCC2)cc1,2.7
12,COc1cc(C(C)(C)C)ccc1C(=O)Nc1cccc2c1CCC2N (centres undefined),2.7
13,CCC(Sc1nc2ccccc2o1)C(=O)Nc1nccs1 (centres undefined),5.7
14,COc1ccc(S(=O)(=O)Nc2ccccc2Nc2ccc(C)cc2)cc1,2.8
15,N#Cc1ccc(-c2ccc(OCC(=O)NNC(=O)c3ccco3)cc2)cc1,2.8
16,CCc1c(C)nc(-n2nc(C)cc2NC(=O)COc2ccccc2F)[nH]c1=O,2.8
17,c1ccc2oc(CN3CCC4(CC3)OCCc3sccc34)cc2c1,2.8
18,COc1cc(Nc2ccccc2)ccc1NS(=O)(=O)c1ccc(-c2cc(C(F)(F)F)n(C)n2)s1,2.8
19,Cc1cc(C)c2cc(C(=O)NC3CCCCC3)[nH]c2c1,2.8
20,Cc1cc2ncn(-c3nccc(N4CCN(Cc5ccncc5)CC4)n3)c2cc1C,2.8
21,CCN(CC)CCCn1c(Sc2ccnc(N3CCN(c4ccncc4)CC3)n2)nnc1-c1ccco1,2.8
22,c1coc(-c2nnc(Sc3ccnc(N4CCN(c5ccncc5)CC4)n3)n2CCCN2CCOCC2)c1,2.8
23,c1ccc2c(Cc3nnc(Sc4ccnc(N5CCN(c6ccncc6)CC5)n4)n3CCN3CCOCC3)c[nH]c2c1,2.8

row,Structure (SMILES),MIC90 [µM]
1,O=C(Nc1nnc(-c2ccc(Cl)cc2)o1)c1ccc(Cl)cc1,2.8
2,Cc1ccc(C)c(-c2nnc(NC(=O)c3ccc(Cl)s3)o2)c1,2.8
3,CCN(Cc1ccc2c(c1)OCO2)C(=O)CSc1nc(NC)c2ccccc2n1,3.3
4,CCc1ccc(Nc2nnc(SCc3cc(C)on3)s2)cc1,7.4
5,NC(=O)c1cnc2ccc(S(=O)(=O)c3ccccc3)cc2c1Nc1ccc(O)cc1,2.9
6,N#Cc1nc(-c2cccs2)oc1S(=O)(=O)c1ccc(Br)cc1,2.9
7,COc1ccc(-c2ccc(Nc3cccc(S(=O)(=O)CCNCC(C)(C)C)c3)nc2)cn1,2.9
8,CCN(CC)CCCn1c(Cc2ccccc2)nnc1Sc1ccnc(N2CCN(c3ccncc3)CC2)n1,2.9
9,COc1cc(Cc2cnc(N)nc2N)c2cnccc2c1N(C)C,6.4
10,COCc1nc(N2CCNCC2)c2c(C)nn(-c3ccc(C)cc3)c2n1,3
11,COc1ccc(S(=O)(=O)Nc2ccc(Nc3ccccc3)cc2OC)cc1,3
12,COc1ccc(C(=O)Nc2nnc(-c3ccc4c(c3)CCCC4)o2)cc1,3
13,COc1ccc2cnnc(SCC(=O)NNC(=O)c3cccs3)c2c1OC,3
14,O=C(Nc1nnc(-c2ccc(Cl)s2)o1)c1ccc(Br)s1,3
15,Cc1nnc(SCC(=O)NNC(=O)c2ccco2)nc1O,3
16,O=C(Nc1nc(-c2ccccn2)cs1)c1ccc2c(c1)OCO2,3
17,Cc1ccc(C)c(-c2nnc(NC(=O)c3ccc4c(c3)CCCC4)o2)c1,3
18,O=C(COc1ccccc1)N1CCN(c2cnc3ccccc3n2)CC1,9.3
19,Cc1c(C(=O)Nc2ccccc2)nnc2cc(-c3ccccc3)nn12,3.1
20,CC1CCCC(NC(=O)Nc2ccc3snnc3c2)C1C (centres undefined),3.1
21,CCCCOc1ccc(C(=O)Nc2nnc(-c3ccccc3)o2)cc1,3.1
22,O=C(Nc1nc(-c2ccccn2)cs1)c1cc2c(s1)CCCCC2,3.1
23,C=CCNCCS(=O)(=O)c1cccc(Nc2ccc(-c3cccc(F)c3)cn2)c1,3.1

row,Structure (SMILES),MIC90 [µM]
1,CN(CCOc1cccc(-c2ccc(C(=O)N3CCCC3)cc2)c1)Cc1cc(-c2ccccc2)no1,3.1
2,COc1cccc(C(=O)N(Cc2cccnc2)Cc2cc3c(C)cc(C)cc3nc2Cl)c1,3.1
3,NC(=O)c1ccc(-c2cccc(OCCNCCc3cccc(F)c3)c2)cc1,3.1
4,Cc1cc2c(NC(=O)NC3CCN(c4ccc(C(F)(F)F)cn4)CC3)cccc2c(C)n1,3.1
5,O=C1N(C2CCCCC2)CCS1(=O)=O,3.1
6,O=C(NCc1cc(Cl)cc(Cl)c1)c1c(C(F)(F)F)nc2ccccn12,1.3
7,C=CCNc1nc(SC)nc2ccccc12,4.4
8,O=C(Cc1ccc(Cl)c(Cl)c1)Nc1nc(-c2ccccn2)cs1,3.2
9,CN(C)c1ccc(NC(=O)Nc2cnsn2)cc1,3.2
10,CCOc1ccc(-c2nc(-c3ccc(C(F)(F)F)c(O[C@@H]4CCN(C)C4)c3)no2)cc1,3.2
11,CSc1ncc(C(=O)Nc2nc(-c3ccc(Cl)cc3)cs2)cn1,3.3
12,CCCc1cc(=O)[nH]c(-n2nc(C)cc2NC(=O)C(CC)c2ccccc2)n1 (centres undefined),2.7
13,Br.CCc1ccccc1OCCCON1C(=N)N=C(N)NC1(C)C,2.8
14,Br.CC1(C)N=C(N)N=C(N)N1OCCc1ccc2ccccc2c1,8.8
15,Br.CCCc1cc(C(C)=O)ccc1OCCCON1C(=N)N=C(N)NC1(C)C,8.8
16,Cc1cc(NCCc2ccccc2)nc(NC(=N)Nc2ccc(Cl)cc2)n1,2
17,Nn1c(=O)oc2ccc(Cl)cc2c1=O,2.8
18,Cc1cc(C(=O)Nc2nc(-c3ccccn3)nc3ccsc23)no1,2.8
19,c1ccc(-c2csc(Nc3nc4cc5c(cc4s3)OCO5)n2)nc1,1.5
20,Fc1cccc2sc(Nc3nc(-c4ccccn4)cs3)nc12,2.3
21,Fc1ccc2nc(Nc3nc(-c4ccccn4)cs3)sc2c1,1
22,Br.CC(C)(C)c1ccccc1OCCCON1C(=N)N=C(N)NC1(C)C,1.8
